Laboratory results: patent US9115166B2, “Rebaudioside A derivative products and methods for making” (The Coca-Cola Company, priority 2008, dated 2015)
Marks after values point to notes of the source that are not given here.

Columns and labels:
[1] = Sweetness potency of derivative products compared to sucrose at iso-sweetness levels (Example 1); conditions: in vivo
Description: These rebaudioside A derivative products were characterized as having an intense sweetening potency. […] Thus, the rebaudioside A derivative products are suitable for use as sweeteners for sweetenable compositions.

[2] = Sweetness intensity of a water sample of derivative product compared with a water sample of sucrose (Example 4); assay type: in vivo; conditions: in water; amount of sample by weight: 1 (II) 3.6 %, 2 (IV) 1.1 %, 3 (III) 9.7 %, 4 (V) 6 %
Description: The sweetness intensity of the foregoing rebaudioside A derivative products was analyzed by comparing the sweetness intensity of a water sample having a particular amount of sucrose with a second water sample having an identical amount of a rebaudioside A derivative product.

[3] = Quality of sweetness: sensory attributes scored on a 15-point unstructured line scale; assay type: in vivo; set-up: key to Stale Flavor / Metallic Flavor / Mouth Numbing / Mouthburn / Stale Aftertaste / Metallic Aftertaste / Overall Aroma / Sweet Aromatic Aroma / Stale Aroma: scores on a 15-point unstructured line scale; conditions: for Metallic Aftertaste / Metallic Flavor / Mouth Numbing / Mouthburn / Stale Flavor / Overall Aroma / Stale Aftertaste / Stale Aroma / Sweet Aromatic Aroma / Astringency / Bitterness / Bitterness Aftertaste / Black Licorice Aftertaste / Black Licorice Flavor / Cooling / Overall Aftertaste / Overall Flavor / Sweet Aromatic Aftertaste / Sweet Aromatic Flavor / Sweetness / Sweetness Aftertaste: mean score, 15-point line scale, two replications, room temperature; for Overall Aroma / Stale Aftertaste / Stale Aroma / Sweet Aromatic Aroma: more than 50% of responses zero; for Astringency / Bitterness / Bitterness Aftertaste / Black Licorice Aftertaste / Black Licorice Flavor / Cooling / Overall Aftertaste / Overall Flavor / Sweet Aromatic Aftertaste / Sweet Aromatic Flavor / Sweetness / Sweetness Aftertaste: same superscript letter = not significantly different (95%)
Description: The quality of sweetness of the rebaudioside A derivative products 1 (II), 2 (IV), 3 (III), and 4 (V) also was evaluated and compared to that of rebaudioside A, rebaudioside B, rebaudioside F, and sucrose at room temperature. For each attribute, the sweeteners received a score based on a 15-point unstructured line scale. […] A multiple comparison test, Fisher's LSD 5%, aided in the comparative analysis of the scores.

| Compound | taste quality [1] | Sweetness Intensity of Derivative Product (as compared to equivalent amount of sucrose) [2] | Metallic Aftertaste [3] | Metallic Flavor [3] | Mouth Numbing [3] | Mouthburn [3] | Stale Flavor [3] | Overall Aroma [3] | Stale Aftertaste [3] | Stale Aroma [3] | Sweet Aromatic Aroma [3] | Astringency [3] | Bitterness [3] | Bitterness Aftertaste [3] | Black Licorice Aftertaste [3] | Black Licorice Flavor [3] | Cooling [3] | Overall Aftertaste [3] | Overall Flavor [3] | Sweet Aromatic Aftertaste [3] | also measured |
| --- | --- | --- | --- | --- | --- | --- | --- | --- | --- | --- | --- | --- | --- | --- | --- | --- | --- | --- | --- | --- | --- |
| CC1=CC23CCC4C(C)(C(=O)O)CCCC4(C)C2CCC1(OC1OC(CO)C(O)C(OC2OC(CO)C(O)C(O)C2O)C1OC1OC(CO)C(O)C(O)C1O)C3 [Derivative Product 4 (V), 13-[(2-O-β-D-glucopyranosyl-3-O-β-D-glucopyranosyl-β-D-glucopyranosyl)oxy]kaur-15-en-18-oic acid] | sweet clean taste similar to sugar | 120 | 0.63 | 0.87 | 0.90 | 1.23 | 0.77 | 0.19 | 0.47 | 0.09 | 0.00 | 3.01^ab | 2.08^cde | 1.38^bcd | 1.25^a | 1.40^bc | 0.70^ab | 5.24^b | 6.44^b | 0.83^ab | characteristics which were not significantly different from sucrose (number) ([3]; Fisher's LSD 5%, 95% confidence level): 8; Sweet Aromatic Flavor [3]: 0.75^ab; Sweetness [3]: 6.04^b; Sweetness Aftertaste [3]: 4.85^b |
| CC1(C(=O)O)CCCC2(C)C3CCC4(OC5OC(CO)C(O)C(OC6OC(CO)C(O)C(O)C6O)C5OC5OC(CO)C(O)C(O)C5O)CC3(CCC12)CC4(C)O [Derivative Product 3 (III), 13-[(2-O-β-D-glucopyranosyl-3-O-β-D-glucopyranosyl-β-D-glucopyranosyl)oxy]-16-hydroxy kauran-18-oic acid] | sweet clean taste similar to sugar | 190 | 0.83 | 1.02 | 1.09 | 1.15 | 0.63 | 0.09 | 0.41 | 0.00 | 0.08 | 3.27^a | 2.90^ab | 1.75^abc | 1.37^a | 1.84^ab | 0.57^b | 5.72^ab | 10.02^a | 0.68^abc | Sweet Aromatic Flavor [3]: 0.77^ab; Sweetness [3]: 9.73^a; Sweetness Aftertaste [3]: 5.38^ab |
